Data taken from ChEMBL document CHEMBL1201862, “PubChem BioAssay data set” (2004).
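Interpolation was linear, between the two tested concentrations surrounding the appropriate level; five concentrations were tested over 48 hours in 96-well plates. GI50: concentration for 50% inhibition of growth.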 Calls of active or inactive are those of the source. Cut-off read from the data, not from the text of the source: active = GI50 up to about 1.1 µM and inactive = higher.

Key:
Assay in all cases: inhibition of tumour cell growth, NCI panel, 48 h
SF-539 = system: SF-539
OVCAR-3 = system: OVCAR-3
IGROV-1 = system: IGROV-1
MOLT-4 = system: MOLT-4
TK-10 = system: TK-10
A498 = system: A498
PC-3 = system: PC-3
HOP-62 = system: HOP-62
NCI-H522 = system: NCI-H522
K562 = system: K562
SR = system: SR
SK-MEL-5 = system: SK-MEL-5
OVCAR-5 = system: OVCAR-5
UACC-62 = system: UACC-62
RPMI-8226 = system: RPMI-8226
SNB-75 = system: SNB-75
MDA-MB-435 = system: MDA-MB-435
SK-OV-3 = system: SK-OV-3
SK-MEL-2 = system: SK-MEL-2
SF-295 = system: SF-295

SMILES	GI50 (SF-539)	GI50 (OVCAR-3)	GI50 (IGROV-1)	GI50 (MOLT-4)	GI50 (TK-10)	GI50 (A498)	GI50 (PC-3)	GI50 (HOP-62)	GI50 (NCI-H522)	GI50 (K562)	GI50 (SR)	GI50 (SK-MEL-5)	GI50 (OVCAR-5)	GI50 (UACC-62)	GI50 (RPMI-8226)	GI50 (SNB-75)	GI50 (MDA-MB-435)	GI50 (SK-OV-3)	GI50 (SK-MEL-2)	GI50 (SF-295)
COc1cc(/C=C2\C[C@H]3[C@@H]4CC=C5C=C(N6CCCC6)CC[C@]5(C)[C@H]4CC[C@]3(C)C2=O)cc(OC)c1OC	3.5 µM (inactive)	1.88 µM (inactive)	1.79 µM (inactive)	2.05 µM (inactive)	6.49 µM (inactive)	8.79 µM (inactive)	3.12 µM (inactive)	2.48 µM (inactive)	1.43 µM (inactive)	3.42 µM (inactive)	1.44 µM (inactive)	2.76 µM (inactive)	7.1 µM (inactive)	2.13 µM (inactive)	2.53 µM (inactive)	4.51 µM (inactive)	1.63 µM (inactive)	6.89 µM (inactive)	3.18 µM (inactive)	2.22 µM (inactive)
CCOc1ccc(Nc2nc(N)nc(N)c2N)cc1	21.7 µM (inactive)	30.5 µM (inactive)	11.6 µM (inactive)	19.8 µM (inactive)	> 100 µM (inactive)	> 100 µM (inactive)	45.3 µM (inactive)	24.7 µM (inactive)	26 µM (inactive)	13.6 µM (inactive)	0.472 µM (active)	61.5 µM (inactive)	29.6 µM (inactive)	32.7 µM (inactive)	12.1 µM (inactive)	20.6 µM (inactive)	25.1 µM (inactive)	> 100 µM (inactive)	44.9 µM (inactive)	17.9 µM (inactive)
Cc1cccc2c(NCCN(C)C)c3cccc(C(=O)NCCN(C)C)c3nc12	0.0649 µM (active)	0.31 µM (active)	0.171 µM (active)	0.0262 µM (active)	0.445 µM (active)	0.918 µM (active)	0.356 µM (active)	0.258 µM (active)	< 0.0486 µM (active)	0.0278 µM (active)	0.0281 µM (active)	0.157 µM (active)	1.27 µM (inactive)	0.135 µM (active)	0.0838 µM (active)	0.357 µM (active)	0.176 µM (active)	0.226 µM (active)	0.54 µM (active)	0.105 µM (active)
